According to US20250186405A1, “Compound For Use In Treating Narcolepsy” (Alkermes, Inc., priority 2023, published 2025):

Tested on: healthy adult subjects
Assay: Part 2 MAD: treatment-emergent adverse events, once daily for 10 days (N = 6 per dose)
Format: in vivo, human
Description: Part 2 of the study is a MAD evaluation in healthy subjects consisting of 4 cohorts: Cohorts 1-4 received powder-in-capsule or matching placebo. Dose levels were as follows:
Safety assessments were made. A plasma PK sample was collected pre-dose on Day 8.

CS(=O)(=O)N[C@H]1CCCN2C(=O)COc3ccccc3C3CCC(CC3)OCC12 (stereo partly drawn) [Compound A, N-[(4S,4aR,7α,10α)-1,2,3,4,4a,5,7,8,9,10,16,17-dodecahydro-17-oxo-7,10-ethanopyrido[1,2-d][1,7,4]benzodioxaazacyclotridecin-4-yl]methanesulfonamide]
AE Leading to Study Drug Discontinuation (3 mg): 0 n | Any SAEs (3 mg): 0 n | Any TEAE (3 mg): 2 n | Death (3 mg): 0 n | TEAE Abdominal pain (3 mg): 0 n | TEAE Abdominal pain lower (3 mg): 0 n | TEAE Abnormal dreams (3 mg): 1 n | TEAE Back pain (3 mg): 0 n | TEAE Balance disorder (3 mg): 0 n | TEAE Blood pressure systolic increased (3 mg): 0 n | TEAE Cough (3 mg): 1 n | TEAE Depressed mood (3 mg): 0 n | TEAE Diarrhoea (3 mg): 0 n | TEAE Dizziness (3 mg): 0 n | TEAE Euphoric mood (3 mg): 0 n | TEAE Feeling of relaxation (3 mg): 0 n | TEAE Headache (3 mg): 0 n | TEAE Hypervigilance (3 mg): 0 n | TEAE Insomnia (3 mg): 0 n | TEAE Nocturia (3 mg): 0 n | TEAE Photophobia (3 mg): 0 n | TEAE Pollakiuria (3 mg): 0 n | TEAE Salivary hypersecretion (3 mg): 0 n | TEAE Visual impairment (3 mg): 0 n | TEAE Vomiting (3 mg): 0 n | TEAE by Highest Relationship: Not Related (3 mg): 2 n | TEAE by Highest Relationship: Related (3 mg): 0 n | TEAE by Highest Severity: Mild (3 mg): 2 n | TEAE by Highest Severity: Moderate (3 mg): 0 n | TEAE by Highest Severity: Severe (3 mg): 0 n | AE Leading to Study Drug Discontinuation (8 mg): 0 n | Any SAEs (8 mg): 0 n | Any TEAE (8 mg): 5 n | Death (8 mg): 0 n | TEAE Abdominal pain (8 mg): 1 n | TEAE Abdominal pain lower (8 mg): 1 n | TEAE Abnormal dreams (8 mg): 0 n | TEAE Back pain (8 mg): 0 n | TEAE Balance disorder (8 mg): 0 n | TEAE Blood pressure systolic increased (8 mg): 0 n | TEAE Cough (8 mg): 0 n | TEAE Depressed mood (8 mg): 1 n | TEAE Diarrhoea (8 mg): 2 n | TEAE Dizziness (8 mg): 0 n | TEAE Euphoric mood (8 mg): 0 n | TEAE Feeling of relaxation (8 mg): 0 n | TEAE Headache (8 mg): 0 n | TEAE Hypervigilance (8 mg): 1 n | TEAE Insomnia (8 mg): 2 n | TEAE Nocturia (8 mg): 1 n | TEAE Photophobia (8 mg): 1 n | TEAE Pollakiuria (8 mg): 0 n | TEAE Salivary hypersecretion (8 mg): 0 n | TEAE Visual impairment (8 mg): 0 n | TEAE Vomiting (8 mg): 1 n | TEAE by Highest Relationship: Not Related (8 mg): 3 n | TEAE by Highest Relationship: Related (8 mg): 2 n | TEAE by Highest Severity: Mild (8 mg): 4 n | TEAE by Highest Severity: Moderate (8 mg): 1 n | TEAE by Highest Severity: Severe (8 mg): 0 n | AE Leading to Study Drug Discontinuation (15 mg): 0 n | Any SAEs (15 mg): 0 n | Any TEAE (15 mg): 3 n | Death (15 mg): 0 n | TEAE Abdominal pain (15 mg): 0 n | TEAE Abdominal pain lower (15 mg): 0 n | TEAE Abnormal dreams (15 mg): 0 n | TEAE Back pain (15 mg): 0 n | TEAE Balance disorder (15 mg): 0 n | TEAE Blood pressure systolic increased (15 mg): 0 n | TEAE Cough (15 mg): 0 n | TEAE Depressed mood (15 mg): 0 n | TEAE Diarrhoea (15 mg): 0 n | TEAE Dizziness (15 mg): 3 n | TEAE Euphoric mood (15 mg): 0 n | TEAE Feeling of relaxation (15 mg): 0 n | TEAE Headache (15 mg): 1 n | TEAE Hypervigilance (15 mg): 0 n | TEAE Insomnia (15 mg): 1 n | TEAE Nocturia (15 mg): 0 n | TEAE Photophobia (15 mg): 0 n | TEAE Pollakiuria (15 mg): 1 n | TEAE Salivary hypersecretion (15 mg): 0 n | TEAE Visual impairment (15 mg): 2 n | TEAE Vomiting (15 mg): 0 n | TEAE by Highest Relationship: Not Related (15 mg): 0 n | TEAE by Highest Relationship: Related (15 mg): 3 n | TEAE by Highest Severity: Mild (15 mg): 3 n | TEAE by Highest Severity: Moderate (15 mg): 0 n | TEAE by Highest Severity: Severe (15 mg): 0 n | AE Leading to Study Drug Discontinuation (25 mg): 1 n | Any SAEs (25 mg): 0 n | Any TEAE (25 mg): 5 n | Death (25 mg): 0 n | TEAE Abdominal pain (25 mg): 0 n | TEAE Abdominal pain lower (25 mg): 0 n | TEAE Abnormal dreams (25 mg): 0 n | TEAE Back pain (25 mg): 1 n | TEAE Balance disorder (25 mg): 1 n | TEAE Blood pressure systolic increased (25 mg): 1 n | TEAE Cough (25 mg): 0 n | TEAE Depressed mood (25 mg): 0 n | TEAE Diarrhoea (25 mg): 0 n | TEAE Dizziness (25 mg): 3 n | TEAE Euphoric mood (25 mg): 1 n | TEAE Feeling of relaxation (25 mg): 1 n | TEAE Headache (25 mg): 0 n | TEAE Hypervigilance (25 mg): 0 n | TEAE Insomnia (25 mg): 3 n | TEAE Nocturia (25 mg): 0 n | TEAE Photophobia (25 mg): 0 n | TEAE Pollakiuria (25 mg): 2 n | TEAE Salivary hypersecretion (25 mg): 1 n | TEAE Visual impairment (25 mg): 1 n | TEAE Vomiting (25 mg): 0 n | TEAE by Highest Relationship: Not Related (25 mg): 0 n | TEAE by Highest Relationship: Related (25 mg): 5 n | TEAE by Highest Severity: Mild (25 mg): 4 n | TEAE by Highest Severity: Moderate (25 mg): 1 n | TEAE by Highest Severity: Severe (25 mg): 0 n | AE Leading to Study Drug Discontinuation (Total (N = 24)): 1 n | Any SAEs (Total (N = 24)): 0 n | Any TEAE (Total (N = 24)): 15 n | Death (Total (N = 24)): 0 n | TEAE Abdominal pain (Total (N = 24)): 1 n | TEAE Abdominal pain lower (Total (N = 24)): 1 n | TEAE Abnormal dreams (Total (N = 24)): 1 n | TEAE Back pain (Total (N = 24)): 1 n | TEAE Balance disorder (Total (N = 24)): 1 n | TEAE Blood pressure systolic increased (Total (N = 24)): 1 n | TEAE Cough (Total (N = 24)): 1 n | TEAE Depressed mood (Total (N = 24)): 1 n | TEAE Diarrhoea (Total (N = 24)): 2 n | TEAE Dizziness (Total (N = 24)): 6 n | TEAE Euphoric mood (Total (N = 24)): 1 n | TEAE Feeling of relaxation (Total (N = 24)): 1 n | TEAE Headache (Total (N = 24)): 1 n | TEAE Hypervigilance (Total (N = 24)): 1 n | TEAE Insomnia (Total (N = 24)): 6 n | TEAE Nocturia (Total (N = 24)): 1 n | TEAE Photophobia (Total (N = 24)): 1 n | TEAE Pollakiuria (Total (N = 24)): 3 n | TEAE Salivary hypersecretion (Total (N = 24)): 1 n | TEAE Visual impairment (Total (N = 24)): 3 n | TEAE Vomiting (Total (N = 24)): 1 n | TEAE by Highest Relationship: Not Related (Total (N = 24)): 5 n | TEAE by Highest Relationship: Related (Total (N = 24)): 10 n | TEAE by Highest Severity: Mild (Total (N = 24)): 13 n | TEAE by Highest Severity: Moderate (Total (N = 24)): 2 n | TEAE by Highest Severity: Severe (Total (N = 24)): 0 n | Tolerability (multiple doses 3 to 25 mg once daily for 10 days): well tolerated
